This note sets out measurements from patent US20230365632A1, “A GROUP OF PEPTIDE DERIVATIVE OMICSYNINS WITH ANTIVIRAL ACTIVITY AND USES THEREOF” (INSTITUTE OF MEDICINAL BIOTECHNOLOGY CHINESE ACADEMY OF …, priority 2020, published 2023).

Series [1] can be described thus: in vitro. As to conditions: dog.
Series [2] in a line: in vitro. As to conditions: human.
The test system of series [3] is influenza virus A/wuhan/359/95 (H3N2). Description: organism not typed. It counts as cell-based.
For another series, the system named is coronavirus HCoV-229E. Kind of series: CPE inhibition assay against HCoV-229E in Huh7.5 cells. Format: cell-based.
Series [4] concerns influenza virus A/Fort Monmouth/1/47 (H1N1). Kind of series: organism not typed. The note with it: MDCK, read-out: A/Fort Monmouth/1/47(H1N1) IC50. Format: cell-based.
Series [5] deals with Madin-Darby canine kidney cells (MDCK).
In the next series the test system is Huh7.5 cells. Kind of series: 50% toxicity concentration (TC50) by CPE assay in Huh7.5 cells. The note with it: read-out: TC50, Table 10.
A further series deals with coronavirus HCoV-OC43. Kind of series: qRT-PCR of HCoV-OC43 N protein mRNA in C3A cells. Format: cell-based. The note with it: 24 hours, corrected for GAPDH, read-out: IC50 for inhibitory activity of coronavirus HCoV-OC43.
The mark [6] stands for this setting: MDCK, read-out: A/Wuhan/359/1995 (H3N2) IC50.
Where [7] appears, read: Human coronavirus 229E, Huh7.5, read-out: HCoV-229E IC50.

Converted amounts (≈) assume the structure as drawn. “And” between values parts separate entries of the source, which are not always exact repeats. Equal values may be shown once. Read-outs that look alike come from different tables or passages of the source. *1 amine or outer side, *2 acyl side, *3 side chain or, on linkers, in order; H or OH if unused. Where a SMILES comes first, the peptide text is derived from it. [ ]: non-standard residue; d: D form. Phe(ol) = N[CH](CO)Cc1ccccc1; CO = O=C([*:1])[*:2]

Consider `CC(C)C[C@H](NC(=O)[C@@H](NC(=O)N[C@@H](Cc1ccccc1)C(=O)O)[C@@H]1CCN=C(N)N1)C(=O)N[C@H](C=O)Cc1ccccc1` [chymostatin, Chymostatin], for which the CC50 was more than 329 µM in the series “in vitro [1]” and more than 165 µM in “in vitro [2]”. Also, the IC50 stood at 329 µM in series [3] (setting [6]) and 23.7 ± 5.66 µM with coronavirus HCoV-229E (setting [7]).
Consider `CC(C)[C@H](NC(=O)[C@H](CCCNC(=N)N)NC(=O)N[C@@H](Cc1ccccc1)C(=O)O)C(=O)N[C@H](C=O)CCCNC(=N)N` [antipain, Antipain] ({Phe-CO}-Arg-Val-Arg-aldehyde), for which the CC50 in the series “in vitro [1]” was more than 331 µM; in “in vitro [2]” it was more than 165 µM. The IC50 was determined as 3.16 ± 0.94 µM in series [3] (MDCK, Table 9; CPE method; mean ± SD, three repeats; read-out: A/Wuhan/359/1995 (H3N2) IC50) and 1.57 ± 0.46 µM with coronavirus HCoV-229E (setting [7]).
For `CCOC(=O)C1=C[C@@H](OC(CC)CC)[C@H](NC(C)=O)[C@@H](N)C1` [Oseltamivir], the IC50 in series [4] (Table 2, positive drugs) was determined as 2.01 µg/mL (≈ 6.43 µM); in series [3] (MDCK, Table 1; positive drug; read-out: A/wuhan/359/95(H3N2) IC50), 1.63 µg/mL; in series [3] (MDCK, Table 3; positive drug; read-out: A/Wuhan/359/1995 (H3N2) IC50) it was 2.01 µg/mL; in series [3] (MDCK, Table 4; positive drug; read-out: A/Wuhan/359/1995 (H3N2) IC50), 1.77 µg/mL; in series [3] (MDCK; Table 2; positive drugs; read-out: A/wuhan/359/95(H3N2) IC50) it was 1.63 µg/mL; in series [3] (MDCK; read-out: A/Wuhan/359/1995 (H3N2) IC50) it was 2.47 µg/mL. The TC50 in series [5] (Table 1, positive drug) is on record as 1260 µg/mL (≈ 4030 µM); in series [5] (Table 2, positive drugs), 1260 µg/mL (≈ 4030 µM); in series [5] (Table 3, positive drug), 577.4 µg/mL (≈ 1850 µM); in series [5] (Table 4, positive drug) it was more than 1000 µg/mL; in series [5] (Table 6, 50E-C18 components and positive drugs), 577.35 µg/mL (≈ 1850 µM).
As for `CCOC(=O)C1=C[C@@H](OC(CC)CC)[C@H](NC(C)=O)[C@@H](N)C1` [Oseltamivir Phosphate], the IC50 in series [3] (MDCK, Table 5; HP20 eluates and positive drugs; read-out: A/Wuhan/359/1995 (H3N2) IC50) stood at 2.01 µg/mL. Also, the TC50 in series [5] (Table 5, HP20 eluates and positive drugs) is 577.35 µg/mL.
For `NC(=O)c1ncn([C@@H]2O[C@H](CO)[C@@H](O)[C@H]2O)n1` [RBV, ribavirin], the CC50 in the series “in vitro [1]” was more than 819 µM; in “in vitro [2]”, more than 410 µM. Besides, the IC50 is 0.82 µg/mL (≈ 3.36 µM) in series [4]; 2.47 µg/mL and 13.2 µM in series [3] (setting [6]); 1.63 µg/mL in series [3] (MDCK, read-out: A/wuhan/359/95(H3N2) IC50); 25.1 ± 6.1 µM in the series with coronavirus HCoV-229E (setting [7]).
On to `CC(C)[C@H](NC(=O)[C@H](CCCNC(=N)N)NC(=O)N[C@@H](Cc1ccccc1)C(=O)O)C(=O)N[C@H](C=O)CCCNC(=N)N` [Omicsynin B4, Antipain] ({Phe-CO}-Arg-Val-Arg-aldehyde), for which the CC50 in the series on Huh7.5 cells is more than 165 µM; in series [5] (read-out: TC50, Table 9, CPE method), more than 331 µM. In addition, the IC50 with coronavirus HCoV-OC43 turned out to be 28.7 µM; in series [3] (Table 9; CPE method; mean ± SD, three repeats; read-out: A/Wuhan/359/1995 (H3N2) IC50) it was 2.43 ± 0.71 µM; with coronavirus HCoV-229E (Table 10, Huh7.5 cells, 100 TCID50, read-out: HCoV-229E IC50), 0.89 ± 0.22 µM.
As to `CC(C)C(NC(=O)C(CCCNC(=N)N)NC(=O)NC(Cc1ccccc1)C(=O)O)C(=O)NC(CO)Cc1ccccc1` (stereo not drawn) [Omicsynin A3, Chymostatinol A] ({Phe-CO}-Arg-Val-[Phe(ol)]; configuration not given here), the results for the CC50 in “in vitro [1]” and in “in vitro [2]” were more than 336 µM and more than 168 µM, respectively. Besides, the IC50 was determined as 87.9 ± 23.7 µM in series [3] (setting [6]) and 57.4 ± 15.6 µM in the series on coronavirus HCoV-229E (setting [7]).
